Measured values as given in US8183405B2, “Obovatol derivatives or pharmaceutically acceptable salts thereof, preparation method thereof and pharmaceutical composition for the prevention and treatment of cancer containing the same as an active ingredient” (Korea Research Institute of Bioscience and Biotechnology, priority 2008, dated 2012).

Legend:
human cancer cell line = test: Inhibitory effect on growth of cancer cell (WST-1); assay type: cell-based; details: for OD: 48 hours, WST-1, absorbance at 450 nm, control OD 0.604
Method: The compounds prepared in Examples 1, 2 and 3 were evaluated for inhibitory activity against the growth of a human cancer cell line using WST-1. Human cancer cell lines were incubated in 10% fetal bovine serum (FBS)-supplemented media at 37°C. in a 5% CO2 atmosphere, followed by detaching the cells with 0.05% trypsin-EDTA.
Cells were plated onto […] at a density of 4,000 cells (A549, MDA-MB-231), 5,000 cells (HEK293, NCI-H23) or 6,000 cells (HCA-7, HCT116, SW620, DU145) per well, which were counted using a hematocytometer.
After incubation in 10% FBS-supplemented media at 37°C. for 24 hours in a 5% CO2 incubator, the media was changed with fresh media containing a control (0.1% DMSO) or the compound of Example 1 in an amount of 5, 10, 15, 20, 25 or 30 μg/ml (dissolved in DMSO and diluted in the medium). After 48 hours of treatment, WST-1 (Roche) was added in an amount of 10 μl to each well and incubated for 2 hrs. Absorbance at 450 nm was read in an ELISA reader (Bio-Rad).

[1] = Assay for acute oral toxicity in rat; details: SD, in vivo, 500 mg/kg, oral administration, rats
Method: Specific pathogen free (SPF) SD rats 6 weeks old were used for this assay. The obovatol derivative prepared in Example 1 or 2 was dissolved in distilled water, and the solution was orally administered at a dose of 500 mg/kg to respective groups of two rats.
Autopsies were performed to check for abnormalities of the thoracic and abdominal organs with the naked eye.

Solubility (Table 1) = assay type: physicochemical; details: for Solubility Insoluble: solvents in which the compound is insoluble; for Solubility Soluble: solvents in which the compound is soluble
[2] = test system: colorectal cancer cells (SW620); test: Apoptotic effect on cancer cells (annexin V-FITC/PI FACS); assay type: cell-based, human; details: 50 μM, 48 hours, 14.12% at pre-treatment
Method: Apoptosis was analyzed using flow cytometry. First, colorectal cancer cells (SW620) were treated with 0.1% DMSO (negative control), 0 μM, 30 μM or 50 μM of the compound of Example 1 for 48 hours and detached with 0.05% trypsin-EDTA. After being harvested through centrifugation, the cells were washed twice with PBS (phosphate-buffered saline) and suspended at a density of 1×10^6 cells/ml in a 1× binding buffer (10 mM Hepes/NaOH, pH 7.4, 140 mM NaCl, and 2.5 mM CaCl2). 100 μl of the cell suspension was transferred into a 5 ml culture tube, mixed with 5 μl of annexin V-FITC and 10 μl of PI (propidium iodide), and incubated at room temperature for 15 min in a light-tight condition. Then, 400 μl of 1×binding buffer was added to each tube, followed by FACS analysis for annexin V-FITC-stained cells (Moussa Alkhalaf, Abdulla El-Mowafy, Waleed Renno, Ousama Rachid, Ahmed Ali, and Raja Al-Attyiah, Archives of Medical Research 39, 162-168, 2006).
In FACS plots of FIG. 1, the distribution of stained cells is shown. Cell migration to the second quadrant and the fourth quadrant refers to an increase in chromosome number, meaning an increased number of cells in the G2/M phase or S phase.
The third quadrant and the fourth quadrant of the FACS plot indicate cells expressing the early apoptosis marker annexin V.

**Q.** For `CCCc1ccc(Oc2cc(CCC)cc(O)c2O)cc1` [Example 1, 3-(4-propylphenoxy)-5-propylbenzene-1,2-diol], which OD (human cancer cell line; 5 μg/ml) is on record?
**A.** 0.592

**Q.** What about the OD (human cancer cell line; 10 μg/ml) of the same compound?
**A.** 0.557

**Q.** What about the OD (human cancer cell line; 15 μg/ml) of the same compound?
**A.** 0.474

**Q.** What about the OD (human cancer cell line; 20 μg/ml) of the same compound?
**A.** 0.247

**Q.** What about the OD (human cancer cell line; 25 μg/ml) of the same compound?
**A.** 0.149

**Q.** What about the OD (human cancer cell line; 30 μg/ml) of the same compound?
**A.** 0.141

**Q.** What about the “inhibit the growth of cancer cells” value (human cancer cell line; concentration of 20 μg/ml or higher) of the same compound?
**A.** ≥ 50%

**Q.** What about the LD50 [1] of the same compound?
**A.** ≥ 500 mg/kg

**Q.** What about the “Solubility Insoluble” value (Solubility (Table 1)) of the same compound?
**A.** Water

**Q.** And the “Solubility Soluble” value (Solubility (Table 1))?
**A.** Alcohol, DMSO

**Q.** And the “fraction of the cells migrating to the third quadrant (annexin V)” value [2]?
**A.** 59.58%

**Q.** Which results are given for `C=CCc1ccc(Oc2cc(CC=C)cc(O)c2OC)cc1` [Example 2, 3-(4-allylphenoxy)-5-allyl-2-methoxyphenol]?
**A.** LD50 [1]: ≥ 500 mg/kg; Solubility Insoluble (Solubility (Table 1)): Hexane, Water; Solubility Soluble (Solubility (Table 1)): Alcohol, DMSO

**Q.** For `C=CCc1ccc(Oc2cc(CC=C)cc(OC(C)=O)c2OC(C)=O)cc1` [Example 3, 1-(4-allylphenoxy)-5-allyl-2,3-diacetyloxybenzene], which “Solubility Insoluble” value (Solubility (Table 1)) is on record?
**A.** Hexane, Water

**Q.** And the “Solubility Soluble” value (Solubility (Table 1))?
**A.** Alcohol, DMSO

**Q.** Which “Solubility Insoluble” value (Solubility (Table 1)) does the source give for `C=CCc1ccc(Oc2cc(CC=C)cc(OC(=O)COC)c2OC(=O)COC)cc1` [Example 4, 1-(4-allylphenoxy)-5-allyl-2,3-di-2-methoxyacetyloxybenzene] here?
**A.** Hexane, Water

**Q.** And the “Solubility Soluble” value (Solubility (Table 1))?
**A.** Alcohol, DMSO

**Q.** Which “Solubility Insoluble” value (Solubility (Table 1)) does the source give for `CCCc1ccc(Oc2cc(CCC)cc(O)c2OC)cc1` [Example 5, 3-(4-propylphenoxy)-2-methoxy-5-propylphenol] here?
**A.** Hexane, Water

**Q.** And the “Solubility Soluble” value (Solubility (Table 1))?
**A.** Alcohol, DMSO

**Q.** What does the source list for `CCCc1ccc(Oc2cc(CCC)cc(OC(C)=O)c2OC(C)=O)cc1` [Example 6, 1-(4-propylphenoxy)-2,3-diacetyloxy-5-propylbenzene]?
**A.** Solubility Insoluble (Solubility (Table 1)): Water; Solubility Soluble (Solubility (Table 1)): Alcohol, DMSO

**Q.** What does the source list for `CCCc1ccc(Oc2cc(CCC)cc(OC(=O)COC)c2OC(=O)COC)cc1` [Example 7, 1-(4-propylphenoxy)-2,3-di-2-methoxyacetyloxy-5-propylbenzene]?
**A.** Solubility Insoluble (Solubility (Table 1)): Water; Solubility Soluble (Solubility (Table 1)): Alcohol, DMSO

**Q.** Which results are given for `C/C=C/c1ccc(Oc2cc(/C=C/C)cc(O)c2O)cc1` [Example 8, 3-(4-((E)-prop-1-enyl)phenoxy)-5-((E)-prop-1-enyl)benzene-1,2-diol]?
**A.** Solubility Insoluble (Solubility (Table 1)): Water; Solubility Soluble (Solubility (Table 1)): Alcohol, DMSO

**Q.** Which “Solubility Insoluble” value (Solubility (Table 1)) does the source give for `C/C=C/c1ccc(Oc2cc(/C=C/C)cc(OC(C)=O)c2OC(C)=O)cc1` [Example 9, 1-(4-((E)-prop-1-enyl)phenoxy)-2,3-diacetyloxy-5-((E)-prop-1-enyl) benzene] here?
**A.** Water

**Q.** And the “Solubility Soluble” value (Solubility (Table 1))?
**A.** Alcohol, DMSO

**Q.** Which results are given for `C/C=C/c1ccc(Oc2cc(/C=C/C)cc(OC(=O)COC)c2OC(=O)COC)cc1` [Example 10, 1-(4-((E)-prop-1-enyl)phenoxy)-2,3-di-2-methoxyacetyloxy-5-((E)-prop-1-enyl)benzene]?
**A.** Solubility Insoluble (Solubility (Table 1)): Water; Solubility Soluble (Solubility (Table 1)): Alcohol, DMSO
